Some results are limits rather than exact numbers.

Data on seven compounds can be found in US8008007B2, “S-adenosyl-L-methionine analogs with extended activated groups for transfer by methyltransferases” (RWTH Aachen, priority 2005, dated 2011).

One experiment deals with T1, M.TaqI (Thermus aquaticus, UniProt P14385).
T1 construct: made in house
Briefly: DNA protection assay with M.TaqI (wild-type) on phage lambda DNA. In kind it is biochemical. Conditions: cofactor 300 μM, then R.TaqI. The text has this:
(§1) Transfer kinetics of the activated ethyl (—CH2CH3), propyl (—CH2CH2CH3), prop-2-enyl (—CH2CH═CH2), prop-2-ynyl (—CH2C≡CH), but-2-ynyl (—CH2C≡CCH3), pent-2-ynyl (—CH2C≡CCH2CH3) and benzyl group (—CH2C6H5) from cofactors 3-9 by the DNA adenine-N6 methyltransferase M.TaqI and its variant V21 G, the DNA cytosine-C5 methyltransferase M.HhaI and its variant Q82A, the DNA cytosine-N4 methyltransferase M.BcnIB and the DNA cytosine-C5 methyltransferase M.SssI variant Q142A to phage lambda DNA (48502 base pairs) were investigated using a DNA protection assay. This assay makes use of the fact that DNA methyltransferase-catalyzed modifications of nucleobases within the recognition sequences of restriction endonucleases can protect the DNA against fragmentation by these enzymes. […] Unmodified DNA containing 5′-TCGA-3′ recognition sequences is readily fragmentated by R.TaqI. After DNA modification by M.TaqI in the presence of a cofactor with an activated group Z—R modified 5′-TCGA^Z—R-3′ sequences are formed and, as a result, R.TaqI is unable to fragment the modified DNA. Occurrence of fragmentation is then analyzed by agarose gel electrophoresis.
(§2) By varying the amounts of DNA methyltransferase, this assay is used to investigate the enzymatic activities of the different DNA methyltransferases with cofactors 3-9 and compare them to the enzymatic activities with the natural cofactor 1. The minimal amount of DNA methyltransferase needed to fully protect 1 μg of phage lambda DNA against restriction endonuclease fragmentation under the given experimental conditions is defined as one enzyme unit (u).
(§3) Afterwards a solution (30 μL) containing R.TaqI restriction endonuclease (40 u, MBI Fermentas), bovine serum albumin (0.166 mg/mL) and buffer (16.6 mM Tris hydrochloride, 166 mM sodium chloride, 8.3 mM magnesium chloride, pH 8.0) was added to each dilution and incubation at 60-65° C. was continued for 15 min. Loading buffer (10 μL, 0.25% bromphenol blue, 30% glycerol) was added to each sample, and aliquots (12 μL) were analyzed for the degree of protection by agarose gel (1%) electrophoresis. Parallel control experiments were performed with phage lambda DNA in the absence of M.TaqI and in the presence of M.TaqI (200 ng).
Afterwards a solution (10 μL) containing R.TaqI restriction endonuclease (10 u, MBI Fermentas), bovine serum albumin (0.1 mg/mL) and buffer (33 mM Tris acetate, 66 mM potassium acetate, 10 mM magnesium acetate, pH 7.9) was added to each dilution and incubation was continued at 65° C. for 1 h. […] Parallel control experiments were performed with phage lambda DNA in the absence of M.TaqI and in the presence of M.TaqI (180 ng).

The target of a further experiment is T2, M.TaqI-V21G (Thermus aquaticus, UniProt P14385, V21G).
T2 construct: made in house
T2 sequence (P14385 whole entry V21G): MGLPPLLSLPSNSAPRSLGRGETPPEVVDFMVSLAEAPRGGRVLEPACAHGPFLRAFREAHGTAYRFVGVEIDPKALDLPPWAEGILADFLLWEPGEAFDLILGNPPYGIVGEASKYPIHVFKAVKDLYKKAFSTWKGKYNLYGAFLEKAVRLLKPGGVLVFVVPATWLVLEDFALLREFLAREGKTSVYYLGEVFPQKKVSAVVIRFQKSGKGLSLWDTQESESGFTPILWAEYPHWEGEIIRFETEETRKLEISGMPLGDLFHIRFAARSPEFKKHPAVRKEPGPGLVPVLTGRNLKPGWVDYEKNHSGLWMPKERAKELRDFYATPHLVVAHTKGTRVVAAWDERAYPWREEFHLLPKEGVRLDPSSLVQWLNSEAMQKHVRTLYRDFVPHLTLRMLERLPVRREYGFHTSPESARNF
Briefly: DNA protection assay with M.TaqI variant V21G on phage lambda DNA. In kind it is biochemical. To be noted: 1 μg phage lambda DNA, cofactor 300 μM, 60° C. for 4 h, then R.TaqI.
From the text: as §1, §2, §3
Therefore, the codon for V21 was changed to a codon for glycine by standard PCR mutagenesis (Ho et al., (1989) Gene 77, 51-59) and the correct DNA sequence of the complete gene was verified by DNA sequencing. […] The DNA protection assay with the V21G variant was performed as described for the wild type (Example 3A.1).

[1] abbreviates: 1 μg phage lambda DNA, 60° C. for 4 h, 1 u = minimal enzyme amount fully protecting 1 μg DNA.

T1 sequence (P14385 whole entry): as the sequence (P14385 whole entry V21G) above, with G21V counted along it

`CC#CC[S+](CCC(N)C(=O)O)CC1OC(n2cnc3c(N)ncnc32)C(O)C1O` (mixture of isomers) [Cofactor 7]: the “specific activity of M.TaqI with the cofactor” value at M.TaqI (setting [1]) is 1280 u/μg. On M.TaqI-V21G, the “specific activity of M.TaqI-V21G with the cofactor” value (from here on “specific activity of M.TaqI-V21G”) turned out to be 80 u/μg.

For the compound `CC[S+](CCC(N)C(=O)O)CC1OC(n2cnc3c(N)ncnc32)C(O)C1O` (stereo not shown) [Cofactor 3], at M.TaqI (setting [1]), the “specific activity of M.TaqI with the cofactor” value came out at 10 u/μg. The “specific activity of M.TaqI-V21G” value at M.TaqI-V21G is recorded as 5 u/μg.

For `CCC[S+](CCC(N)C(=O)O)CC1OC(n2cnc3c(N)ncnc32)C(O)C1O` (stereo not shown) [Cofactor 4], the “specific activity of M.TaqI with the cofactor” value at M.TaqI (setting [1]) is recorded as under 5 u/μg. In addition, the “specific activity of M.TaqI-V21G” value on M.TaqI-V21G is under 5 u/μg.

In the case of `C=CC[S+](CCC(N)C(=O)O)CC1OC(n2cnc3c(N)ncnc32)C(O)C1O` (stereo not shown) [Cofactor 5], at M.TaqI (setting [1]), the “specific activity of M.TaqI with the cofactor” value came to 80 u/μg. For the same compound, the “specific activity of M.TaqI-V21G” value on M.TaqI-V21G was 640 u/μg.

In the case of `C#CC[S+](CCC(N)C(=O)O)CC1OC(n2cnc3c(N)ncnc32)C(O)C1O` (stereo not shown) [Cofactor 6], the “specific activity of M.TaqI with the cofactor” value on M.TaqI (setting [1]) was 10 u/μg. Also, the “specific activity of M.TaqI-V21G” value at M.TaqI-V21G came out at 20 u/μg.

`CCC#CC[S+](CCC(N)C(=O)O)CC1OC(n2cnc3c(N)ncnc32)C(O)C1O` (stereo not shown) [Cofactor 8]: on M.TaqI (setting [1]), the “specific activity of M.TaqI with the cofactor” value is recorded as 640 u/μg. Besides, the “specific activity of M.TaqI-V21G” value at M.TaqI-V21G is 80 u/μg.

For `NCCCC(=O)NCC#CC[S+](CCC(N)C(=O)O)CC1OC(n2cnc3c(N)ncnc32)C(O)C1O` (stereo not shown) [Cofactor 10], the “specific activity of M.TaqI with the cofactor” value on M.TaqI (1.03 μg phage lambda DNA, 60° C. for 1 h only (multiply by four to compare with 4 h values)) came to 11 u/μg.
